Experimental data taken from patent publication US4868207A, “Bis (methylenedioxy) biphenyl compounds useful for the treatment of liver diseases” (priority 1988, dated 1989).
“Also recorded” adds a separate entry of the source.

Columns and labels:
Format in all cases: in vivo
[1] = test system: thioacetamide-intoxicated mice; test: Effect on SGPT, SGOT and liver triglyceride levels in thioacetamide-intoxicated mice; details: for Liver triglyceride / SGOT / SGPT: oral; for Liver triglyceride: control 104 ± 35; for SGOT / SGPT: ± SD; for SGOT: control 1174 ± 435, Compound 1 P < 0.001; for SGPT: control 2365 ± 1045, Compound 1 P < 0.05
From the text: (§1) Throughout the following experiments, male mice weighing 18-22 g were used, and unless otherwise indicated, the compound of the present invention [6-methoxycarbonyl-6'-hydroxymethyl-2,3,2',3'-bis(methylenedioxy)-4,4'-dimethoxybiphenyl (hereinafter referred to as "Compound 1")]]and DDB of a comparative drug are each suspended in 2% of Tween-80 before administered orally.
(§2) Each group consisted of nine mice. The treated groups of mice were given three doses of Compound 1 twice at an interval of 8 hours on the first day, while one group was given corresponding volume of 2% of Tween-80 as control. At 4 p.m. of the second day, all mice were given i.p. 10 ml/kg of 0.1% of carbon tetrachloride in peanut oil. After a 16 hour fasting, all mice were sacrificed by decapitation. Serum transaminase (SGPT, SGOT) levels were determined.
(D) Effect on SGPT, SGOT and liver triglyceride levels in thioacetamide-intoxicated mice (9 mice per group)
Each group consisted of nine mice. The procedure of this experiment was just the same as mentioned in carbon tetrachloride-hepatotoxicity test. Only 50 mg/kg of thioacetamide was instread of carbon tetrachloride.

drug metabolism enzyme = test: Effect on pentobarbital sleeping time in mice; details: for Sleeping time: 200 mg/kg oral, ± SD, control 49 ± 22
Experimental: (E) Effect on pentobarbital sleeping time in mice (10 mice per group)
Three groups of 10 mice were used in this experiment. […] The mice of control were given physiological saline. The interval between the lose and return of righting reflex of each mouse was recorded as sleeping time.

[2] = test system: carbon tetrachloride-intoxicated mice; test: Effect on SGPT and SGOT levels in carbon tetrachloride-intoxicated mice; details: for SGOT / SGPT: oral, ± SD; for SGOT: control 2087 ± 131; for SGPT: control 3110 ± 50
From the text: as §1
Effect on SGPT and SGOT levels in carbon tetrachloride-intoxicated mice (9 mice per group)
as §2

[3] = test system: acetaminophen-intoxicated mice; test: Effect on SGPT, SGOT and liver triglyceride levels in acetaminophen-intoxicated mice; details: for Liver triglyceride / SGPT / SGOT: oral; for Liver triglyceride: control 57.4 ± 18.3; for SGPT / SGOT: ± SD; for SGPT: control 1504 ± 330; for SGOT: control 1695 ± 390
From the text: as §1
(B) Effect on SGPT, SGOT and liver triglyceride levels in acetaminophen-intoxicated mice
Thirty six mice were divided equally into 4 groups. On the first day, one group was given 2% of Tween-80 as control, while other groups were each given two doses of Compound 1 at an interval of 8 hours. All mice were injected i.p. 110 mg/kg of acetaminophen 16 hours after the last administration of Compound 1. After fasting overnight, all mice were decapited. SGPT, SGOT and liver triglyceride levels were determined.

male kunming strain mice = test: Acute toxicity; details: 3 g/20 ml/kg and 6 g/20 ml/kg, oral
Experimental: Ten male kunming strain mice weighing 18-20 g were used, and starved overnight. Compound 1 was suspened in 0.2% CMC-Na, and 5 mice were given orally compound 1 in a dose of 3 g/20 ml/kg. The other 5 mice were given 6 g/20 ml/kg.

[4] = test system: mortality induced by acetaminophen in mice; test: Effect on mortality induced by acetaminophen in mice; details: 200 mg/kg
From the text: as §1
(C) Effect on mortality induced by acetaminophen in mice (14 mice per group)
Each group consisted of 14 mice. The procedure of the treatment was the same as mentioned in the item (B). All mice were given i.p. 400 mg/kg of acetaminophen 24 hours after the second dose of Compound 1. Survival numbers of mice were recorded within 5 days.

[5] = 1 hr before pentobarbital 50 mg/kg i.p., P DDB <0.05, Compound 1 <0.001
[6] = 24 hrs before pentobarbital 50 mg/kg i.p., P DDB <0.01, Compound 1 <0.001
[7] = 200 mg/kg, DDB P < 0.05, Compound 1 P < 0.001
[8] = 200 mg/kg (DDB 200 mg/mg [sic])
[9] = 200 mg/kg (DDB 200 mg/mg [sic]), Compound 1 P < 0.001
[10] = 200 mg/kg (DDB 200 mg/mg [sic]), DDB P < 0.05, Compound 1 P < 0.001

COC(=O)c1cc(OC)c2c(c1-c1c(C(=O)OC)cc(OC)c3c1OCO3)OCO2 [DDB, dimethyl 4,4'-dimethoxy-5,6,5',6'-dimethylenedioxybiphenyl-2,2'-dicarboxylate, reference compound]
Liver triglyceride ([1]; 200 mg/kg): 135 ± 46 mg/kg
SGOT ([1]; 200 mg/kg): 1217 ± 261 u/dl
SGPT ([1]; 200 mg/kg): 2035 ± 770 u/dl
Sleeping time (drug metabolism enzyme; [5]): 91 ± 57 min
Sleeping time (drug metabolism enzyme; [6]): 23 ± 10 min
SGOT ([2]; 50 mg/kg, 9 mice per group): 1922 ± 174 u/dl
SGPT ([2]; 50 mg/kg, 9 mice per group): 2701 ± 243 u/dl
SGOT ([2]; 100 mg/kg): 2019 ± 130 u/dl
SGPT ([2]; 100 mg/kg, Compound 1 P < 0.01): 2965 ± 221 u/dl
SGOT ([2]; 200 mg/kg, Compound 1 P < 0.01): 1700 ± 185 u/dl
SGPT [2, 7]: 2303 ± 318 u/dl
Liver triglyceride [3, 8]: 56.2 ± 27.6 mg/kg
SGPT [3, 9]: 1100 ± 660 u/dl
SGOT [3, 10]: 1130 ± 651 u/dl

COC(=O)c1cc(OC)c2c(c1-c1c(CO)cc(OC)c3c1OCO3)OCO2 [Compound 1, 6-methoxycarbonyl-6'-hydroxymethyl-2,3,2',3'-bis(methylenedioxy)-4,4'-dimethoxybiphenyl]
Liver triglyceride ([1]; 200 mg/kg): 115 ± 31 mg/kg
SGOT ([1]; 200 mg/kg): 565 ± 130 u/dl
SGPT ([1]; 200 mg/kg): 1430 ± 550 u/dl
lowering SGPT and SGOT levels elevated by thioacetamide ([1]; 200 mg/kg, result in words): effective in lowering SGPT and SGOT levels
protective effect against hepatotoxicity induced by thioacetamide ([1]; result in words): protective effect against hepatotoxicity
death (male kunming strain mice; within 2 weeks): no death occured
change of the behavior of the mice (male kunming strain mice; within 48 hours): No noticeable change of the behavior of the mice
Sleeping time (drug metabolism enzyme; [5]): 214 ± 85 min
Sleeping time (drug metabolism enzyme; [6]): 20 ± 8 min
pentobarbital sleeping time (drug metabolism enzyme; 200 mg/kg, one hour before pentobarbital, result in words): significantly prolonged
pentobarbital sleeping time (drug metabolism enzyme; 24 hours prior to pentobarbital, result in words): markedly shortened
action on drug metabolism enzyme (drug metabolism enzyme; indirectly indicated by sleeping time, result in words): inductive action on drug metabolism enzyme; also recorded: increases the activity of drug metabolism enzymes
SGOT ([2]; 50 mg/kg, 9 mice per group): 1826 ± 203 u/dl
SGPT ([2]; 50 mg/kg, 9 mice per group): 2523 ± 273 u/dl
SGOT ([2]; 100 mg/kg): 1739 ± 192 u/dl
SGPT ([2]; 100 mg/kg, Compound 1 P < 0.01): 2126 ± 371 u/dl
SGPT level ([2]; 100 mg/kg, result in words): markedly decreased
SGOT ([2]; 200 mg/kg, Compound 1 P < 0.01): 1362 ± 148 u/dl
SGPT [2, 7]: 947 ± 236 u/dl
SGOT level vs carbon tetrachloride control ([2]; 200 mg/kg, result in words): significantly lowered
SGPT level vs carbon tetrachloride control ([2]; 200 mg/kg, result in words): significantly lowered
protection against carbon tetrachloride hepatotoxicity ([2]; result in words): protective effect against hepatotoxicity; also recorded: effective in protection against carbon tetrachloride hepatotoxicity
Liver triglyceride ([3]; 100 mg/kg): 52.0 ± 13.8 mg/kg
SGPT ([3]; 100 mg/kg, P < 0.05): 935 ± 660 u/dl
SGOT ([3]; 100 mg/kg, P < 0.05): 1000 ± 651 u/dl
Liver triglyceride [3, 8]: 50.0 ± 27.6 mg/kg
SGPT [3, 9]: 550 ± 495 u/dl
SGOT [3, 10]: 565 ± 522 u/dl
lowering SGPT and SGOT levels elevated by acetaminophen ([3]; 200 mg/kg, 100 mg/kg, result in words): effective in lowering SGPT and SGOT levels
liver lesions such as inflammation and necrosis ([3]; result in words): ameliorated
liver triglyceride level elevated by acetaminophen ([3]; result in words): reduced
protective effect against hepatotoxicity induced by acetaminophen ([3]; result in words): protective effect against hepatotoxicity
Number of survival ([4]; 400 mg/kg acetaminophen i.p., of 14 mice, within 5 days, control 3): 11
Mortality ([4]; 400 mg/kg acetaminophen i.p., within 5 days, control 78): 21%
mortality of mice induced by acetaminophen ([4]; result in words): significantly decreased
